Experimental data as given in ChEMBL document CHEMBL3112502, “The insulin secretory action of novel polycyclic guanidines: discovery through open innovation phenotypic screening, and exploration of structure-activity relationships” (Bioorg Med Chem Lett, 2014).
Activity calls are given as the source filed them. The calls are words filed in the database; no cut-off is given here.

Assays:
INS-1E = experiment: (§1) Stimulation of insulin secretion in rat INS-1E cells after 1 hr by alphaLISA assay in presence of 0.1 mM glucose; type: functional, cell-based
[1] = Stimulation of insulin secretion in rat INS-1E cells after 1 hr by alphaLISA assay in presence of 5 mM glucose; type: functional, cell-based
[2] = Stimulation of insulin secretion in rat INS-1E cells after 1 hr by alphaLISA assay in presence of 5 mM glucose relative to IBMX; type: functional
[3] = as §1; type: functional, cell-based
[4] = Stimulation of insulin secretion in rat INS-1E cells after 1 hr by alphaLISA assay in presence of 0.1 mM glucose relative to IBMX; type: functional
Pancreatic islet [5] = experiment: Stimulation of insulin secretion in rat pancreatic islets in presence of 11 mM glucose; type: functional
Pancreatic islet [6] = experiment: Stimulation of insulin secretion in rat pancreatic islets at 3 uM in presence of 3 mM glucose; type: functional
Pancreatic islet [7] = experiment: Stimulation of insulin secretion in rat pancreatic islets at 3 uM in presence of 11 mM glucose; type: functional

Row | SMILES | Activity (INS-1E) | EC50 [1] [µM] | Emax [2] [%] | further results
1 | N=C1N[C@@H](c2ccccc2)C[C@H]2CC[C@H](Cc3ccccc3)N12 | inactive | 4.74 | 52 | 
2 | CC(=O)Nc1ccc([C@H]2C[C@H]3CC[C@H](CCc4ccccc4)N3C(=N)N2)cc1 | inactive | > 33 |  | 
3 | N=C(N)N1C(CCc2ccccc2)CCC1Cc1ccccc1 (mixture of isomers) | inactive | 5.74 | 56 | 
4 | Cc1ccc([C@H]2C[C@H]3CC[C@H](CCc4ccccc4)N3C(=N)N2)cc1 (mixture of isomers) | inactive | 1 | 40 | 
5 | Cc1cc(C)c(Nc2cccc(CC[C@H]3CC[C@@H]4C[C@H](c5ccccc5)NC(=N)N34)c2)c(C)c1 | inactive | > 33 |  | 
6 | CN1C(=N)N2[C@@H](CCc3ccccc3)CC[C@@H]2C[C@@H]1c1ccccc1 | inactive | 0.67 | 29 | 
7 | N=C1N[C@@H](C2CCCCC2)C[C@H]2CC[C@H](CCc3ccccc3)N12 | inactive | 0.75 | 40 | 
8 | N=C1N[C@@H](c2ccccc2)C[C@H]2CC[C@H](CCCc3ccccc3)N12 (mixture of isomers) | inactive | 0.83 | 31 | 
9 | N=C1NC(c2ccccc2)CCN1CCCc1ccccc1 (centres undefined) | inactive | 4.79 | 39 | 
10 | O=C1N[C@@H](c2ccccc2)C[C@H]2CC[C@H](CCc3ccccc3)N12 | inactive | > 33 |  | 
11 | N=C1N[C@@H](c2ccccc2)C[C@H]2CC[C@H](c3ccccc3)N12 | inactive | > 33 |  | 
12 | N=C1NCC[C@H]2CC[C@H](CCc3ccccc3)N12 | inactive | > 33 |  | 
13 | C/C=C/[C@H]1C[C@H]2CC[C@H](CCc3ccccc3)N2C(=N)N1 |  | 1.45 | 21 | EC50 [3]: > 33 µM
14 | COc1cccc([C@H]2C[C@H]3CC[C@H](CCc4ccccc4)N3C(=N)N2)c1 (mixture of isomers) | inactive | 0.76 | 21 | 
15 | N=C(N)N1C(Sc2ccccc2)CCC1c1ccccc1 (mixture of isomers) | inactive | 5.03 | 54 | 
16 | N=C(N)N1C(CCc2ccccc2)CCC1CCc1ccccc1 (mixture of isomers) | inactive | 4.87 | 29 | 
17 | Cn1cc(CC[C@H]2CC[C@@H]3C[C@H](c4ccccc4)NC(=N)N23)cn1 | inactive | > 33 |  | 
18 | N=C1N[C@@H](c2ccc(C(F)(F)F)cc2)C[C@H]2CC[C@H](CCc3ccccc3)N12 | inactive | > 33 |  | 
19 | N=C(NCc1ccccc1)N1CCCC1CCc1ccccc1 (centres undefined) | inactive | 2.47 | 84 | 
20 | CCC[C@H]1CC[C@@H]2C[C@H](c3ccccc3)NC(=N)N12 | inactive | 11.1 | 55 | 

Row | SMILES | Activity (INS-1E) | EC50 [1] [µM] | Emax [2] [%] | further results
21 | N=C1N[C@@H](c2cccc(Br)c2)C[C@H]2CC[C@H](CCc3ccccc3)N12 | inactive | 1.01 | 22 | 
22 | N=C1N[C@@H](c2ccccc2)C[C@H]2CC[C@H](COc3ccccc3)N12 | inactive | > 33 |  | 
23 | Cc1cc(C)c(Nc2ccc(CC[C@H]3CC[C@@H]4C[C@H](c5ccccc5)NC(=N)N34)cc2)c(C)c1 | inactive | > 33 |  | 
24 | N=C1N[C@@H](c2ccc(F)cc2)C[C@H]2CC[C@H](CCc3ccccc3)N12 | inactive | 4.04 | 26 | 
25 | Cc1cccc([C@H]2C[C@H]3CC[C@H](CCc4ccccc4)N3C(=N)N2)c1 (mixture of isomers) | inactive | 1.1 | 20 | 
26 | N=C1N[C@@H](c2ccccc2)C[C@H]2CC[C@H](CCc3ccncc3)N12 | inactive | > 33 |  | 
27 | N=C1N[C@@H](c2ccc(C(=O)O)cc2)C[C@H]2CC[C@H](CCc3ccccc3)N12 | inactive | > 33 |  | 
28 | N=C1N[C@@H](c2ccccc2)C[C@H]2CC[C@H](CCc3cccc(Br)c3)N12 | inactive | 0.45 | 26 | 
29 | N=C1N[C@@H](c2ccc(Br)cc2)C[C@H]2CC[C@H](CCc3ccccc3)N12 | inactive | 0.63 | 23 | 
30 | N=C1N[C@@H](c2ccccc2)C[C@H]2CCCN12 (mixture of isomers) | inactive | > 33 |  | 
31 | N=C1N[C@@H](c2ccccc2Br)C[C@H]2CC[C@H](CCc3ccccc3)N12 (mixture of isomers) | inactive | 0.67 | 52 | 
32 | CC(C)(C)OC(=O)/N=C1\N[C@@H](c2ccccc2)C[C@H]2CC[C@H](CCc3ccccc3)N12 | inactive | > 33 |  | 
33 | N=C(N)N1C(CCc2ccccc2)CCC1Sc1ccccc1 (centres undefined) | inactive | 1.33 | 62 | 
34 | COc1ccc(Cl)cc1C(=O)NCCc1ccc(S(=O)(=O)NC(=O)NC2CCCCC2)cc1 [GLYBURIDE] |  | 0.003 | 50 | EC50 [3]: 0.007 µM; Emax [4]: 17%
35 | N=C1N[C@@H](c2ccccc2)C[C@H]2CC[C@H](c3ccc(-c4ccccc4)cc3)N12 | inactive | > 33 |  | 
36 | C[C@@H]1[C@H]2CC[C@H](CCc3ccccc3)N2C(=N)N[C@H]1c1ccccc1 |  | 1.3 | 27 | EC50 [3]: > 33 µM; Activity (Pancreatic islet [5]): Active
37 | Cc1ccccc1[C@H]1C[C@H]2CC[C@H](CCc3ccccc3)N2C(=N)N1 | inactive | 1.01 | 59 | Activity (Pancreatic islet [6]): inactive; Activity (Pancreatic islet [7]): Active
38 | Cc1cc(C)c(Nc2ccccc2CC[C@H]2CC[C@@H]3C[C@H](c4ccccc4)NC(=N)N23)c(C)c1 | inactive | 1.37 | 54 | 
39 | N=C1N[C@@H](c2ccccc2)C[C@H]2CC[C@H](CCc3ccccc3)N12 |  | 1.25 | 34 | EC50 [3]: > 33 µM
40 | N=C1N[C@H](c2ccccc2)C[C@H]2CC[C@H](CCc3ccccc3)N12 |  | 2.74 | 21 | 
